Assay results from ChEMBL document CHEMBL5257101, “Synthesis and evaluation of sulfonamide derivatives targeting EGFR790M/L858R mutations and ALK rearrangement as anticancer agents” (Bioorg Med Chem, 2023).
Calls of active or inactive are those of the source. The calls are words filed in the database; no cut-off is given here.

How the values were obtained:
HK-2 = experiment: Effect on cell morphology in human HK-2 cells at 1 uM incubated for 24 hrs by inverted microscopic analysis; format: functional, cell-based
[1] = Cytotoxicity against human HK-2 cells assessed as inhibition of cell growth measured after 48 to 72 hrs by MTT assay; format: toxicity, cell-based
[2] = Cytotoxicity against human EA.hy 926 cells assessed as inhibition of cell growth measured after 48 to 72 hrs by MTT assay; format: toxicity, cell-based
A549 = experiment: Antiproliferative activity against human A549 cells expressing wild type EGFR assessed as inhibition of cell growth measured after 48 to 72 hrs by MTT assay; format: functional, cell-based
NCI-H1975 [3] = experiment: Antiproliferative activity against human NCI-H1975 cells expressing EGFR T790M/ L858R double mutant assessed as inhibition of cell growth measured after 48 to 72 hrs by MTT assay; format: functional, cell-based
PC-9 = experiment: Antiproliferative activity against human PC-9 cells expressing EGFR Del19 mutant assessed as inhibition of cell growth measured after 48 to 72 hrs by MTT assay; format: functional, cell-based
NCI-H2228 [4] = experiment: Antiproliferative activity against human NCI-H2228 cells expressing ALK assessed as inhibition of cell growth measured after 48 to 72 hrs by MTT assay; format: functional, cell-based
Homo sapiens [5] = species on record: Homo sapiens; experiment: Selectivity ratio, ratio of IC50 for wild type EGFR (unknown origin) to IC50 for EGFR Del19 mutant (unknown origin) by mobility shifting assay
NCI-H1975 [6] = experiment: Antimigratory activity against human NCI-H1975 cells assessed as decrease in healing rate upto 10 nM measured upto 36 hrs by scratch-wound healing assay; format: functional, cell-based
NCI-H2228 [7] = experiment: Effect on cell morphology in human NCI-H2228 cells assessed as loss of cell morphology at 1 to 1000 nM incubated for 24 hrs; format: functional, cell-based; details: dose 1-1000 nM
[8] = Selectivity ratio, ratio of IC50 for human A549 cells expressing wild type EGFR to IC50 for human PC-9 cells expressing EGFR Del19 mutant by MTT assay
NCI-H1975 [9] = experiment: Inhibition of human NCI-H1975 cell cloning incubated for 24 hrs by inverted microscopic analysis; format: functional, cell-based; details: dose 5-25 nM
[10] = molecular target: Epidermal growth factor receptor (Homo sapiens, UniProt P00533); experiment: Inhibition of wild type EGFR (unknown origin) pre-incubated for 10 mins followed by substrate addition measured after 60 mins in presence of ATP by mobility shifting assay
NCI-H1975 [11] = experiment: Effect on cell morphology in human NCI-H1975 cells assessed as cell shrinkage at 1 to 1000 nM incubated for 24 hrs; format: functional, cell-based; details: dose 1-1000 nM
[12] = Selectivity ratio, ratio of IC50 for human NCI-H1975 cells expressing EGFR T790M/ L858R double mutant to IC50 for human EA.hy 926 cells by MTT assay
NCI-H1975 [13] = experiment: Antimigratory activity against human NCI-H1975 cells assessed as reduction in cell migration incubated for 24 hrs by crystal violet staining microscopy based transwell migration assay; format: functional; details: dose 10-20 nM
[14] = molecular target: Epidermal growth factor receptor (Homo sapiens, UniProt P00533, EX19DEL); experiment: Inhibition of EGFR Del19 mutant (unknown origin) pre-incubated for 10 mins followed by substrate addition measured after 60 mins in presence of ATP by mobility shifting assay
NCI-H1975 [15] = experiment: Effect on cell morphology in human NCI-H1975 cells assessed as disappearance of cell morphology at 1 to 1000 nM incubated for 24 hrs; format: functional, cell-based; details: dose 1-1000 nM
[16] = Selectivity ratio, ratio of IC50 for human NCI-H1975 cells expressing EGFR T790M/ L858R double mutant to IC50 for human HK-2 cells by MTT assay
NCI-H2228 [17] = experiment: Effect on cell morphology in human NCI-H2228 cells assessed as increase of cell shrinkage at 1 to 1000 nM incubated for 24 hrs; format: functional, cell-based; details: dose 1-1000 nM
EA.hy 926 = experiment: Effect on cell morphology in human EA.hy 926 cells at 1 uM incubated for 24 hrs by inverted microscopic analysis; format: functional, cell-based
NCI-H2228 [18] = experiment: Effect on cell morphology in human NCI-H2228 cells assessed as increase of cell opacity at 1 to 1000 nM incubated for 24 hrs; format: functional, cell-based; details: dose 1-1000 nM
NCI-H2228 [19] = experiment: Effect on cell morphology in human NCI-H2228 cells assessed as increase of cell fragments at 1 to 1000 nM incubated for 24 hrs; format: functional, cell-based; details: dose 1-1000 nM
NCI-H1975 [20] = experiment: Induction of apoptosis in human NCI-H1975 cells expressing EGFR T790M/ L858R double mutant assessed as increase in DNA breakage measured after 24 hrs by Hoechst 33342 staining based fluorescence microscopic analysis; format: functional, cell-based; details: dose 5-25 nM
NCI-H1975 [21] = experiment: Effect on cell morphology in human NCI-H1975 cells assessed as cell aggregation at 1 to 1000 nM incubated for 24 hrs; format: functional, cell-based; details: dose 1-1000 nM
[22] = molecular target: ALK tyrosine kinase receptor (Homo sapiens, UniProt Q9UM73); experiment: Inhibition of ALK (unknown origin) pre-incubated for 10 mins followed by substrate addition measured after 60 mins in presence of ATP by mobility shifting assay
[23] = molecular target: Epidermal growth factor receptor (Homo sapiens, UniProt P00533, L858R/T790M); experiment: Inhibition of EGFR L858R/T790M double mutant (unknown origin) pre-incubated for 10 mins followed by substrate addition measured after 60 mins in presence of ATP by mobility shifting assay
NCI-H1975 [24] = experiment: Effect on cell morphology in human NCI-H1975 cells assessed as appearance of blurred boundary region at 1 to 1000 nM incubated for 24 hrs; format: functional, cell-based; details: dose 1-1000 nM
NCI-H2228 [25] = experiment: Inhibition of human NCI-H2228 cell cloning incubated for 24 hrs by inverted microscopic analysis; format: functional, cell-based; details: dose 1-20 nM
[26] = Selectivity ratio, ratio of IC50 for human A549 cells expressing wild type EGFR to IC50 for human NCI-H1975 cells expressing EGFR T790M/ L858R double mutant by MTT assay
NCI-H2228 [27] = experiment: Effect on cell morphology in human NCI-H2228 cells assessed as loss of large number of floating cells at 1 to 1000 nM incubated for 24 hrs; format: functional, cell-based; details: dose 1-1000 nM
[28] = Selectivity ratio, ratio of IC50 for human NCI-H2228 cells expressing ALK to IC50 for human EA.hy 926 cells by MTT assay
NCI-H2228 [29] = experiment: Induction of apoptosis in human NCI-H2228 cells expressing ALK assessed as increase in DNA breakage measured after 24 hrs by Hoechst 33342 staining based fluorescence microscopic analysis; format: functional, cell-based; details: dose 5-25 nM
Homo sapiens [30] = species on record: Homo sapiens; experiment: Selectivity ratio, ratio of IC50 for wild type EGFR (unknown origin) to IC50 for EGFR L858R/T790M double mutant (unknown origin) by mobility shifting assay
[31] = Selectivity ratio, ratio of IC50 for human NCI-H2228 cells expressing ALK to IC50 for human HK-2 cells by MTT assay

Chain of Epidermal growth factor receptor (Homo sapiens, UniProt P00533, EX19DEL) (P00533 whole entry, looked up, stated change not applied): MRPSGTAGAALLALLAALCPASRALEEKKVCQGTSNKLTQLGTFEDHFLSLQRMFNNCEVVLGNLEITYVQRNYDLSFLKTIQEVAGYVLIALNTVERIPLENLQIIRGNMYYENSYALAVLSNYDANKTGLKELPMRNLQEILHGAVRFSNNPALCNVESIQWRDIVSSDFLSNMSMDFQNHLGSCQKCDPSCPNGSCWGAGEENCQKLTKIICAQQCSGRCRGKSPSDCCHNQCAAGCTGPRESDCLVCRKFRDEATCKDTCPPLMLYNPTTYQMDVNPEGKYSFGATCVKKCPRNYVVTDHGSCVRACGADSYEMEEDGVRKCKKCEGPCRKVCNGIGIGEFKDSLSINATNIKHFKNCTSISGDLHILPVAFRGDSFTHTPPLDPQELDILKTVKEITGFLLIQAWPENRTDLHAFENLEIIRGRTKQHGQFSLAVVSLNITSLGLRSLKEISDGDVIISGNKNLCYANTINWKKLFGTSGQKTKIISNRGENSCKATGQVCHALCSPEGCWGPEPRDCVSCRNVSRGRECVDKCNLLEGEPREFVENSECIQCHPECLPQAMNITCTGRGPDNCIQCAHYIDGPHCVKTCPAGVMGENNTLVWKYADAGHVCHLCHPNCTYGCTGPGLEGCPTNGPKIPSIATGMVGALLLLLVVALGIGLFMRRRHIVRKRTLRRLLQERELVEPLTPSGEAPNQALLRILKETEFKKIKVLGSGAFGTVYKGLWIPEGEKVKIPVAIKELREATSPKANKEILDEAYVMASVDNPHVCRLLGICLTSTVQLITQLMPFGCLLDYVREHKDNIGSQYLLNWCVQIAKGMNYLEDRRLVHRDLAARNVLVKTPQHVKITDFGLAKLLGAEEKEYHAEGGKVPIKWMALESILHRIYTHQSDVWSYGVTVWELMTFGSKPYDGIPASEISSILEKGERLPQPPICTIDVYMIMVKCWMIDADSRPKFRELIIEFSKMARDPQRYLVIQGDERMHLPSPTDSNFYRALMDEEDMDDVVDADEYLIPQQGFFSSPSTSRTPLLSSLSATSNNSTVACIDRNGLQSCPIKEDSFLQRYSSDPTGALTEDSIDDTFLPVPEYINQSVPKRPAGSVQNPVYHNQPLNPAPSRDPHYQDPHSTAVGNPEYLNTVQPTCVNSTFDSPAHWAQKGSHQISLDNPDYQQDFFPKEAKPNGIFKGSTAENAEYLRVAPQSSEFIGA
Chain of Epidermal growth factor receptor (Homo sapiens, UniProt P00533) (P00533 whole entry): as the sequence (P00533 whole entry, looked up, stated change not applied) above
Chain of ALK tyrosine kinase receptor (Q9UM73 whole entry): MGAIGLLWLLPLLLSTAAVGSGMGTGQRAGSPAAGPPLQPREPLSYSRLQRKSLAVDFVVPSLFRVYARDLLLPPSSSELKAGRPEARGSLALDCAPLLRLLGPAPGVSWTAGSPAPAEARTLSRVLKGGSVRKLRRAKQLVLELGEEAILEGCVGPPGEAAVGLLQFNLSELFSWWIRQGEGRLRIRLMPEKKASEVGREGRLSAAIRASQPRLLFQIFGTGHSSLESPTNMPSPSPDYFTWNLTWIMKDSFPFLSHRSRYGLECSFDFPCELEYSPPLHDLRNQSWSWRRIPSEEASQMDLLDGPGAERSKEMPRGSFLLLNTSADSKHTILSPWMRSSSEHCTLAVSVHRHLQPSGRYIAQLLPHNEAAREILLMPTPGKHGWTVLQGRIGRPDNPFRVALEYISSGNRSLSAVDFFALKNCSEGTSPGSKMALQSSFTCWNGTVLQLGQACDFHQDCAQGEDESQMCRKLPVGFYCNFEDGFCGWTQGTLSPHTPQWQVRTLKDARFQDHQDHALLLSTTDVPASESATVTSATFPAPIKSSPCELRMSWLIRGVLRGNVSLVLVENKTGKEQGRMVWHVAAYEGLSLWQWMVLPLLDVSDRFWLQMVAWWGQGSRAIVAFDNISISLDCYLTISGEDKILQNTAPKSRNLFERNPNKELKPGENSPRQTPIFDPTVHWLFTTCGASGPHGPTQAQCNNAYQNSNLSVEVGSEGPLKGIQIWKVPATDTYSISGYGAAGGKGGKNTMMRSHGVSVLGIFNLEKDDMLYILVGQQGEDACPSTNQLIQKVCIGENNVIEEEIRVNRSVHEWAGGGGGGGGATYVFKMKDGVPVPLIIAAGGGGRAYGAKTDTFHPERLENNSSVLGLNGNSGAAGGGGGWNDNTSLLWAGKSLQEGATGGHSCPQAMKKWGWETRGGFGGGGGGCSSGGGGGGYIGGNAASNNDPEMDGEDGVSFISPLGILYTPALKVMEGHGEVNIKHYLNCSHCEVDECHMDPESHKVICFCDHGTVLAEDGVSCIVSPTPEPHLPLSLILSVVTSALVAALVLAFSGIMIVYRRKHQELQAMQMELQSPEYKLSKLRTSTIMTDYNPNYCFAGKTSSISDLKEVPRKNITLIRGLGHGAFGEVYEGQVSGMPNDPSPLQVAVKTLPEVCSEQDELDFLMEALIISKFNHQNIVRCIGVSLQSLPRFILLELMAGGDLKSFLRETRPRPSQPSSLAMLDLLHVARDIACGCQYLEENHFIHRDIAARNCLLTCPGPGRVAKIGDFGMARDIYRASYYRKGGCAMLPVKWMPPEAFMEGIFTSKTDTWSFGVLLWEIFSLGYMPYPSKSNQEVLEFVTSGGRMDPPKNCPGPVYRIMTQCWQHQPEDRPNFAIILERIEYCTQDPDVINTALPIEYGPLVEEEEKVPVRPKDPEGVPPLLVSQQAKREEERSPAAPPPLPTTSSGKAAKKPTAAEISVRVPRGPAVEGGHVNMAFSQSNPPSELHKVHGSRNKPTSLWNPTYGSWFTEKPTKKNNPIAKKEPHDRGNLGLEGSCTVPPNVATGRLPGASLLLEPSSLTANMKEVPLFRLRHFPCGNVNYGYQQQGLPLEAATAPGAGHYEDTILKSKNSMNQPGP

C=CC(=O)Nc1cc(Nc2nccc(-c3cn(C)c4ccccc34)n2)c(OC)cc1N(C)CCN(C)C [OSIMERTINIB]
Activity (HK-2): inactive
IC50 [1]: 2.4 µM
IC50 [2]: 1.16 µM
IC50 (A549): 1.56 µM

C=CC(=O)Nc1cc(Nc2ncc(F)c(Nc3ccccc3S(=O)(=O)N3CCCC3)n2)c(OC)cc1N(C)CCN(C)C
IC50 (NCI-H2228 [4]): 0.019 µM
IC50 (NCI-H1975 [3]): 0.081 µM

CNS(=O)(=O)c1ccccc1Nc1ncnc2cc(OCCOC)c(OCCOC)cc12
IC50 (NCI-H2228 [4]): > 10 µM
IC50 (NCI-H1975 [3]): > 10 µM

COc1cc(N(C)CCN(C)C)c(NC(=O)CCl)cc1Nc1ncc(Cl)c(Nc2ccccc2S(=O)(=O)N(C)C)n1
IC50 (NCI-H2228 [4]): 0.104 µM
IC50 (NCI-H1975 [3]): 1.03 µM

COCCOc1cc2ncnc(N(C)c3ccccc3S(=O)(=O)N(C)C)c2cc1OCCOC
IC50 (NCI-H2228 [4]): > 10 µM
IC50 (NCI-H1975 [3]): > 10 µM

C=CC(=O)Nc1cc(Nc2ncc(Cl)c(Nc3ccccc3S(=O)(=O)N(C)C3CC3)n2)c(OC)cc1N(C)CCN(C)C
IC50 (NCI-H2228 [4]): 0.0245 µM
IC50 (NCI-H1975 [3]): 0.101 µM

COCCOc1cc2ncnc(Nc3ccccc3S(=O)(=O)N(C)C)c2cc1OCCOC
IC50 (NCI-H2228 [4]): > 10 µM
IC50 (NCI-H1975 [3]): > 10 µM

CCN(CC)S(=O)(=O)c1ccccc1Nc1ncnc2cc(OCCOC)c(OCCOC)cc12
IC50 (NCI-H2228 [4]): > 10 µM
IC50 (NCI-H1975 [3]): > 10 µM

C=CC(=O)Nc1cc(Nc2ncc(F)c(Nc3ccccc3S(=O)(=O)N(C)C)n2)c(OC)cc1N(C)CCN(C)C
IC50 (NCI-H2228 [4]): 0.045 µM
IC50 (NCI-H1975 [3]): 0.067 µM

COCCOc1cc2ncnc(Nc3ccccc3S(=O)(=O)NC3CC3)c2cc1OCCOC
IC50 (NCI-H2228 [4]): > 10 µM
IC50 (NCI-H1975 [3]): > 10 µM

C=CC(=O)Nc1cc(Nc2ncc(Cl)c(Nc3ccccc3S(=O)(=O)N3CCCC3)n2)c(OC)cc1N(C)CCN(C)C
IC50 (NCI-H2228 [4]): 0.014 µM
IC50 (NCI-H1975 [3]): 0.0136 µM

COCCOc1cc2ncnc(Nc3ccccc3S(=O)(=O)N3CCCC3)c2cc1OCCOC
IC50 (NCI-H2228 [4]): > 10 µM
IC50 (NCI-H1975 [3]): > 10 µM

CNC(=O)c1ccccc1Nc1ncnc2cc(OCCOC)c(OCCOC)cc12
IC50 (NCI-H2228 [4]): > 10 µM
IC50 (NCI-H1975 [3]): > 10 µM

Cc1cc(N(C)CCN(C)C)ccc1Nc1ncc(Cl)c(Nc2ccccc2S(=O)(=O)N(C)C)n1
IC50 (NCI-H2228 [4]): 0.0555 µM
IC50 (NCI-H1975 [3]): 0.17 µM

C=CC(=O)Nc1cc(Nc2ncc(Cl)c(Nc3ccccc3S(=O)(=O)NC3CC3)n2)c(OC)cc1N(C)CCN(C)C
Activity (HK-2): Active
Ratio IC50 (Homo sapiens [5]): 32.3
IC50 (NCI-H2228 [4]): 0.011 µM
Activity (NCI-H1975 [6]): Active
Activity (NCI-H2228 [7]): Active
IC50 [1]: 3.3 µM
Ratio IC50 [8]: 71.86
inhibition (NCI-H1975 [9]): Active
IC50 [2]: 1.61 µM
IC50 [10]: 0.0232 µM
Activity (NCI-H1975 [11]): Active
Ratio IC50 [12]: 74.83
Activity (NCI-H1975 [13]): Dose-Dependent Effect
IC50 (A549): 1.54 µM
IC50 [14]: 0.00072 µM
Activity (NCI-H1975 [15]): Active
Ratio IC50 [16]: 157.28
Activity (NCI-H2228 [17]): Active
Activity (EA.hy 926): Active
Activity (NCI-H2228 [18]): Active
Activity (NCI-H2228 [19]): Active
Activity (NCI-H1975 [20]): Dose-Dependent Effect
Activity (NCI-H1975 [21]): Active
IC50 [22]: 0.00331 µM
IC50 [23]: 0.00108 µM
Activity (NCI-H1975 [24]): Active
inhibition (NCI-H2228 [25]): Active
Ratio IC50 [26]: 77.25
Activity (NCI-H2228 [27]): Active
Ratio IC50 [28]: 146.27
Activity (NCI-H2228 [29]): Dose-Dependent Effect
Ratio IC50 (Homo sapiens [30]): 21.5
IC50 (NCI-H1975 [3]): 0.0215 µM
IC50 (PC-9): 0.02 µM
Ratio IC50 [31]: 300.27

C=CC(=O)Nc1cc(Nc2ncc(Cl)c(Nc3ccccc3S(=O)(=O)N(C)C)n2)c(OC)cc1N(C)CCN(C)C
IC50 (NCI-H2228 [4]): 0.018 µM
IC50 (NCI-H1975 [3]): 0.0125 µM

Cc1cc(Nc2ncc(Cl)c(Nc3ccccc3S(=O)(=O)C(C)C)n2)c(OC(C)C)cc1C1CCNCC1 [CERITINIB]
IC50 [1]: 2.51 µM
IC50 [2]: 1.01 µM
Ratio IC50 [28]: 228.36
Ratio IC50 [31]: 77.69

CN(C)CCN(C)c1ccc(Nc2ncc(Cl)c(Nc3ccccc3S(=O)(=O)N(C)C)n2)cc1
IC50 (NCI-H2228 [4]): 0.108 µM
IC50 (NCI-H1975 [3]): 0.061 µM
